Patent publication US3988453A, “Novel phenothiazines as neuroleptics” (Roussel-UCLAF, priority 1974, dated 1976)
Structures can show the parent of a compound that is named as a salt. Where two headings read alike, the source gives them in different places.

How the values were obtained:
[1] = tested on: toxicity provoked by amphetamine; assay: antagonism to toxicity provoked by amphetamine; type: in vivo, male mice; settings: mouse, oral, read-out: ED50 (DE50), amphetaminic toxicity
Experimental: B. antagonism to toxicity provoked by amphetamine
This test was effect on groups of 10 male mice grouped in crystallizers with a 20 cm diameter and a 9 cm height closed with a grilled lid. Each mouse orally received a determined dose of the test product and at different times a single intraperitoneal dose of dexamphetamine sulfate. The injection was effected 1 hour, 24 hours or 2,3,4 or 7 days after the administration of the test compound and the mortality for each group was determined 24 hours after the injection. The ED50, the dose at which the toxicity of dexamphetamine sulphate was reduced by 50%, was determined and the results are reported in Table I.

[2] = tested on: stereotypes provoked by apomorphine; assay: antagonism to stereotypes provoked by apomorphine; type: in vivo, male rats; settings: rat, oral, read-out: ED50 (DE50), apomorphine sterotypes
Experimental: A. antagonism to stereotypes provoked by apomorphine
This test was conducted on groups of 5 male rats in individual cages with the procedure of Janssen et al [Arzn. Forsch., Vol. 15 (1965), p. 104-117 and Vol. 17 (1967), p. 841-854]. Each rat orally received the test compound and then, at variable times, an intraveinous injection of 1.5 mg of apomorphine hydrochloride in the veins of the penis. The times of injection were 1 hour, 24 hours, 2 days, 3 days or 4 days after the test product administration and the rats were studied during 1 minute after 5,10 and 15 minutes after the injection and the stereotype movements of the jaws spheres were evaluated for their degree of intensity on a scale for 0 to 3 /Boissier et al, Therapie, Vol. 25 (1970), p. 939-949/. The ED50 was determined at the maximum of the effect for the time considered that is to say the dose reducing the symptoms by 50% in the treated animals as compared to control animals and the results are reported in Table I.

[3] = tested on: histamine hydrochloride lethality; assay: antihistaminic activity (protection against lethal histamine dose); type: in vivo, guinea pigs; settings: guinea pig, oral 10 mg/kg
Experimental: E. antihistaminic Activity
This test was effected on guinea pigs which received orally a single dose of 10 mg/kg of the test product and then a intraveinous injection of 0.8 mg/kg of histamine hydrochloride 1 hour or 24 hours thereafter. This histamine dose is the minimum lethal dose for 100% of the animals within about 3 minutes and after 10 minutes, any surviving animals were considered to be protected. Each product was rated to see if 50% of the animals were alive at this dose and the values of Table IV show at least 50% protected by + and less than 50% protected by 0.

[4] = tested on: vomitting provoked by apomorphine; assay: antagonism against vomitting provoked by apomorphine; type: in vivo, dogs; settings: dog
Experimental: D. antagonism against vomitting provoked by apomorphine
This test was effected on 3 dogs on whom the number of vomits provoked by a single subcutaneous injection of 0.1 mg/kg of apomorphine hydrochloride 8 days before this test. Each dog received subcutaneously an injection of an aqueous suspension of 0.3 mg/kg or 0.8 mg/kg of the product of Example 2 and an injection of 0.1 mg/kg of apomorphine hydrochloride 30 minutes, 7 days, 14 days, 21 days, 28 days, 35 days and 42 days thereafter.

[5] = tested on: stereotypes provoked by amphetamine; assay: antagonism to stereotypes provoked by amphetamine; type: in vivo, rats; settings: for % protection: rat
Experimental: C. antagonism to stereotypes provoked by amphetamine
This test with the product of Example 2 was effected on groups of 5 rats with the rats individually held in cages and after the rats received intraperitoneally or subcutaneously an aqueous suspension of the product at a dose of 10 mg/kg, each rat received intraperitoneally at different times a single injection of 8 mg/kg of dexamphetamine sulfate. The second injections were made 1 hour or 1,3 or 7 days after the first injection and the results were determined by the procedure of Halliwel et al [Brit. J. Pharmacol., Vol. 23 (1964), p. 330-350].

acute toxicity = settings: mouse, in vivo, Swiss mice, mortality at 72 hours
Experimental: The acute toxicity of the product of Example 2 was determined on groups of 10 mice of the Swiss strain weighing about 20 g receiving increasing doses orally or intraperitoneally of the test product. The mortality was determined 72 hours after the product administration.

[6] = dexamphetamine 1 h after test product
[7] = dexamphetamine 24 h after test product
[8] = apomorphine 1 h after test product
[9] = apomorphine 24 h after test product
[10] = 48 h, dexamphetamine 2 d after test product
[11] = 72 h, dexamphetamine 3 d after test product
[12] = 48 h, apomorphine 2 d after test product
[13] = 72 h, apomorphine 3 d after test product
[14] = 96 h, apomorphine 4 d after test product
[15] = 96 h, dexamphetamine 4 d after test product
[16] = 168 h, dexamphetamine 7 d after test product

## c1ccc2c(c1)Sc1ccccc1N2CCCN1CCC(c2c[nH]c3ccccc23)CC1 [Example 1, 4-(3'-indolyl)-1-[γ-(10"-phenothiazinyl)-propyl]-piperidine.HCl]
[1]; [6]
  ED50: < 10 mg/kg
[1]; [7]
  ED50: < 10 mg/kg
[2]; [8]
  ED50: > 50 mg/kg
[2]; [9]
  ED50: 35 mg/kg
[3]; after 1 hour
  Protection against histamine: 0 (less than 50% protected)
[3]; after 24 hours
  Protection against histamine: + (at least 50% protected)

## FC(F)(F)c1ccc2c(c1)N(CCCN1CCC(c3c[nH]c4ccccc34)CC1)c1ccccc1S2 [Example 2, 4-(3'-indolyl)-1-[γ-(2"-trifluoromethyl-10"-phenothiazinyl)-propyl]-piperidine hydrochloride]
[1]; [10]
  ED50: < 10 mg/kg
[1]; [11]
  ED50: 50 mg/kg
[1]; [6]
  ED50: < 10 mg/kg
[1]; [7]
  ED50: < 10 mg/kg
[4]; subcutaneous
  neuroleptic activity (Table III, in words): important prolonged neuroleptic activity
[4]; subcutaneous 0.3 mg/kg, after 30 min
  % of protection: 24%
[4]; subcutaneous 0.3 mg/kg, after 7 d
  % of protection: 86%
[4]; subcutaneous 0.3 mg/kg, after 14 d
  % of protection: 57%
[4]; subcutaneous 0.3 mg/kg, after 21 d
  % of protection: 29%
[4]; subcutaneous 0.3 mg/kg, after 28 d
  % of protection: 10%
[4]; subcutaneous 0.8 mg/kg, after 30 min
  % of protection: 0%
[4]; subcutaneous 0.8 mg/kg, after 7 d
  % of protection: 100%
[4]; subcutaneous 0.8 mg/kg, after 14 d
  % of protection: 95%
[4]; subcutaneous 0.8 mg/kg, after 21 d
  % of protection: 84%
[4]; subcutaneous 0.8 mg/kg, after 28 d
  % of protection: 79%
[4]; subcutaneous 0.8 mg/kg, after 35 d
  % of protection: 42%
[4]; subcutaneous 0.8 mg/kg, after 42 d
  % of protection: 21%
[5]; injected intraperitoneally or subcutaneously
  antagonistic effect against the stereotypes provoked by amphetamine (in words): important antagonistic effect of prolonged duration
[5]; intraperitoneal 10 mg/kg, after 1 hour
  % protection: 39%
[5]; intraperitoneal 10 mg/kg, after 1 day
  % protection: 77%
[5]; intraperitoneal 10 mg/kg, after 3 days
  % protection: 68%
[5]; intraperitoneal 10 mg/kg, after 7 days
  % protection: 61%
[5]; subcutaneous 10 mg/kg, after 1 hour
  % protection: 17%
[5]; subcutaneous 10 mg/kg, after 1 day
  % protection: 84%
[5]; subcutaneous 10 mg/kg, after 3 days
  % protection: 60%
[5]; subcutaneous 10 mg/kg, after 7 days
  % protection: 14%
Acute toxicity; ip, intraperitoneal
  LD50 at 72 h: ~300 mg/kg
Acute toxicity; oral
  LD50 at 72 h: > 1600 mg/kg
[2]; [12]
  ED50: 18 mg/kg
[2]; [13]
  ED50: 17 mg/kg
[2]; [14]
  ED50: 33 mg/kg
[2]; [8]
  ED50: > 50 mg/kg
[2]; [9]
  ED50: < 10 mg/kg
[3]; after 1 hour
  Protection against histamine: + (at least 50% protected)
[3]; after 24 hours
  Protection against histamine: 0 (less than 50% protected)

## COc1ccc2[nH]cc(C3CCN(CCCN4c5ccccc5Sc5ccc(C(F)(F)F)cc54)CC3)c2c1 [Example 3, 4-(5'-methoxy-3'-indolyl)-1-[γ-(2"-trifluoromethyl-10"-phenothiazinyl)-propyl]-piperidine hydrochloride]
[1]; [10]
  ED50: < 10 mg/kg
[1]; [11]
  ED50: < 10 mg/kg
[1]; [15]
  ED50: < 10 mg/kg
[1]; [6]
  ED50: < 10 mg/kg
[1]; [7]
  ED50: < 10 mg/kg
[2]; [12]
  ED50: < 10 mg/kg
[2]; [13]
  ED50: 12 mg/kg
[2]; [14]
  ED50: 20 mg/kg
[2]; [8]
  ED50: > 50 mg/kg
[2]; [9]
  ED50: < 10 mg/kg

## COc1ccc2c(C3CCN(CCCN4c5ccccc5Sc5ccc(C(F)(F)F)cc54)CC3)c(C)[nH]c2c1 [Example 4, 4-(2'-methyl-6'-methoxy-3'-indolyl)-1-[γ-(2"-trifluoromethyl-10"-phenothiazinyl)-propyl]-piperidine hydrochloride]
[1]; [10]
  ED50: < 10 mg/kg
[1]; [11]
  ED50: 9 mg/kg
[1]; [15]
  ED50: 9 mg/kg
[1]; [16]
  ED50: 50 mg/kg
[1]; [6]
  ED50: 10 mg/kg
[1]; [7]
  ED50: < 10 mg/kg
[2]; [12]
  ED50: 9 mg/kg
[2]; [13]
  ED50: 16 mg/kg
[2]; [14]
  ED50: 25 mg/kg
[2]; [8]
  ED50: > 50 mg/kg
[2]; [9]
  ED50: 9 mg/kg

## Clc1ccc2c(c1)N(CCCN1CCC(c3c[nH]c4ccccc34)CC1)c1ccccc1S2 [Example 5, 4-(3'-indolyl)-1'-[γ-(2"-chloro-10"-phenothiazinyl)-propyl]-piperidine hydrochloride]
[1]; [10]
  ED50: < 10 mg/kg
[1]; [11]
  ED50: 10 mg/kg
[1]; [15]
  ED50: 17 mg/kg
[1]; [6]
  ED50: 16 mg/kg
[1]; [7]
  ED50: < 10 mg/kg
[2]; [12]
  ED50: 12 mg/kg
[2]; [13]
  ED50: 27 mg/kg
[2]; [8]
  ED50: > 50 mg/kg
[2]; [9]
  ED50: < 10 mg/kg
[3]; after 1 hour
  Protection against histamine: + (at least 50% protected)
[3]; after 24 hours
  Protection against histamine: + (at least 50% protected)

## COc1ccc2c(c1)N(CCCN1CCC(c3c[nH]c4ccccc34)CC1)c1ccccc1S2 [Example 6, 4-(3'-indolyl)-1-[γ-(2"-methoxy-10"-phenothiazinyl)-propyl]-piperidine hydrochloride]
[1]; [10]
  ED50: 10 mg/kg
[1]; [6]
  ED50: < 10 mg/kg
[1]; [7]
  ED50: < 10 mg/kg
[2]; [12]
  ED50: 45 mg/kg
[2]; [8]
  ED50: > 50 mg/kg
[2]; [9]
  ED50: < 10 mg/kg
[3]; after 1 hour
  Protection against histamine: 0 (less than 50% protected)
[3]; after 24 hours
  Protection against histamine: + (at least 50% protected)

## CC(CN1CCC(c2c[nH]c3ccccc23)CC1)CN1c2ccccc2Sc2ccc(C(F)(F)F)cc21 (stereo not drawn) [Example 7, 4-(3'-indolyl)-1-[β-methyl-γ-(2"-trifluoromethyl-10"-phenothiazinyl)-propyl]-piperidine hydrochloride]
[1]; [10]
  ED50: < 10 mg/kg
[1]; [11]
  ED50: 13 mg/kg
[1]; [15]
  ED50: < 10 mg/kg
[1]; [16]
  ED50: 19 mg/kg
[1]; [6]
  ED50: > 20 mg/kg
[1]; [7]
  ED50: < 10 mg/kg
[2]; [12]
  ED50: 10 mg/kg
[2]; [13]
  ED50: < 10 mg/kg
[2]; [14]
  ED50: 12 mg/kg
[2]; [8]
  ED50: > 20 mg/kg
[2]; [9]
  ED50: 10 mg/kg
[3]; after 1 hour
  Protection against histamine: 0 (less than 50% protected)
[3]; after 24 hours
  Protection against histamine: + (at least 50% protected)

## COc1ccc2c(c1)N(CC(C)CN1CCC(c3c[nH]c4ccccc34)CC1)c1ccccc1S2 (stereo not drawn) [Example 8, 4-(3'-indolyl)-1-[γ-(2"-methoxy-10"-phenothiazinyl)-β-methylpropyl]-piperidine hydrochloride]
[1]; [10]
  ED50: < 10 mg/kg
[1]; [11]
  ED50: 18 mg/kg
[1]; [6]
  ED50: < 10 mg/kg
[1]; [7]
  ED50: < 10 mg/kg
[2]; [12]
  ED50: 12 mg/kg
[2]; [13]
  ED50: 30 mg/kg
[2]; [8]
  ED50: > 50 mg/kg
[2]; [9]
  ED50: < 10 mg/kg
[3]; after 1 hour
  Protection against histamine: 0 (less than 50% protected)
[3]; after 24 hours
  Protection against histamine: + (at least 50% protected)
